Data from ChEMBL document CHEMBL2384921, “An altered zinc-binding site confers resistance to a covalent inactivator of New Delhi metallo-beta-lactamase-1 (NDM-1) discovered by high-throughput screening” (Bioorg Med Chem, 2013).
Active and inactive are the calls of the source. The calls are words filed in the database; no cut-off is given here.

Experiments:
[1] = Inhibition of TEM-1 (unknown origin) using nitrocefin as substrate preincubated 10 mins followed by substrate addition measured after 20 mins
[2] = Inhibition of NDM-1 (unknown origin) using nitrocefin as substrate preincubated 10 mins followed by substrate addition measured after 20 mins
[3] = Inhibition of TEM-1 (unknown origin) using nitrocefin as substrate preincubated 10 mins followed by substrate addition measured after 20 mins relative to control
[4] = Time-dependent inhibition of wild type NDM-1 (unknown origin) expressed in Escherichia coli BL21 (DE3) at 100 uM
[5] = Time-dependent inhibition of recombinant NDM-1 C108D mutant (unknown origin) expressed in Escherichia coli BL21 (DE3) at 100 uM

Compound	IC50 [1] [µM]	IC50 [2] [nM]	Imax [3] [%]	inhibition [4]	inhibition [5]
CCN(CC)C(=O)N[C@@H]1C[C@@H]2c3cccc4[nH]cc(c34)C[C@H]2N(C)C1	> 30	> 30000	–	–	–
Nc1ccc2c3c(cccc13)C(=O)NC2=O	5.2	700	131	–	–
4-CHLOROMERCURIBENZOIC ACID	> 30	2300	–	–	–
4-[sequence] ACID	–	–	8	Active	inactive
OCCN(CCO)c1nc(N2CCCCC2)c2nc(N(CCO)CCO)nc(N3CCCCC3)c2n1 [DIPYRIDAMOLE]	> 30	> 10000	26	–	–
Cc1c2ccncc2c(C)c2c1[nH]c1ccccc12 [ELLIPTECINE]	> 30	> 30000	–	–	–
CC(=O)[C@]1(O)Cc2c(O)c3c(c(O)c2[C@@H](O[C@H]2C[C@H](N)[C@H](O)[C@H](C)O2)C1)C(=O)c1ccccc1C3=O [IDARUBICIN]	7.3	700	100	–	–
Cn1cc(C2=C(c3ccc(Cl)cc3Cl)C(=O)NC2=O)c2ccccc21 [SB-216763]	> 30	28000	2	–	–
